The record followed here is patent US11878972B2, “Treatment of neurological disorders” (TORQUR AG, priority 2016, dated 2024).

Molecules are shown by their SMILES. pIC50: −log10 of the molar value.

Assay [1] addresses T1, N-terminally GST-tagged mTOR (truncated version: amino acids 1360-2549) (Homo sapiens, UniProt P42345).
T1 construct: truncated version: amino acids 1360-2549; purchased Life Technologies PR8683B
In words: In vitro mTOR binding assay (LanthaScreen TR-FRET). The settings on record: 3 nM GST-mTOR, 10 nM Tracer 314, 30 min at RT. (In general: Time-resolved FRET reads energy transfer from a long-lived donor to a nearby acceptor.)
Protocol: A 10-point 4-fold serial dilution (highest concentration at 10 μmol/L and lowest concentration at 40 pmol/L) of each compound was tested for mTOR binding in duplicate in a 384-well plate. […] After 30 min incubation at RT, time-resolved FRET was measured with a Synergy 4 multi-mode microplate reader (Biotek Instruments) using the following settings: 100 microsecs delay before data collection, 200 microsecs time for data collection, 10 measurements per data point.
IC50 values of each compound were determined by plotting the emission ratio versus the compound concentrations (in logarithmic scale) and then by fitting a sigmoidal dose-response curve with variable slope to the data using GraphPad™ Prism.

Assay [2] concerns S6 phosphorylation (S235/236). In words: mTOR signaling in brain samples of pilocarpine pre-treated and naïve mice (western blot). The class given is in vivo, mouse. The following applies: for decrease of S6 phosphorylation (S235/236) versus control: brain, 3 hours after single oral dose: Cpd. 3 40 mg/kg, Cpd. 8 25 mg/kg, everolimus 5 mg/kg. As for the experimental part:
A ramping-up dosing protocol was used which has the advantage that pilocarpine can be individually applied according to the susceptibility of each mouse. Pilocarpine (Sigma-Aldrich, Germany) was administered to female NMRI mice intraperitoneally at a dose of 100 mg/kg (Pilo-SE group). […] To reduce peripheral side effects of pilocarpine, methylscopolamine (Sigma-Aldrich, Germany) was administered 30 minutes prior to the first injection of pilocarpine. Animals were continuously monitored and duration of convulsive SE was registered [referred to Racine's scale. SE onset was defined as continuous ongoing seizure activity following occurrence of one or two generalized tonic-clonic seizures [stage 4 or 5 on the Racine scale]. SE was characterized by head nodding in an upright (sitting) body position, Straub tail, and slight to moderate convulsions of forelimbs, sometimes interrupted by further generalized tonic-clonic seizures. In order to reduce mortality, SE was terminated by diazepam (10 mg/kg i.p.; diazepam-ratiopharm 10, injection solution) 90 min after SE onset. […] In the sham-SE group mice were treated with the same treatment scheme as the pilo-SE group but pilocarpine was replaced by 0.9% sodium chloride solution. The mortality in the pilo-SE model in mice is relatively high (overall about 50%) and can vary markedly between experimental groups/days. Therefore we had to start with a large number of mice for SE induction in order to reliably obtain a group size of 20-22 animals for the MEST.
Brain samples from pilocarpine treated mice and untreated mice were snap frozen and tissue was lysed in buffer containing 25 mM Tris-HCl, pH 8, 50 mM NaCl, 0.5% (w/v) sodium deoxycholate (DOC), and 0.5% (w/v) Triton X-100 and supplemented with complete protease inhibitor (Roche, Mannheim, Germany) and Phosphostop (NEB, USA). Disruption of cell lysates was performed by drawing up the cell suspension twenty times into a syringe with a small gauge needle (21 G) on ice. Protein concentrations in the lysates were determined by using the Pierce BCA Protein Assay kit (Thermo Scientific, Bonn, Germany) according to the manufacturer's instructions. […] Membranes were incubated with primary antibodies anti S6 1:1000, anti S6 Phospho Serin (240/244) 1:1000, anti S6 Phospho Serin (235/236) 1:2000 (NEB) and anti-Actin 1:100 (Sigma-Aldrich) for 1 h in 2% milk in PBST at room temperature (RT) and washed three times for 10 min in PBS-T. Secondary antibodies anti-rabbit-HRP 1:1000 (Dako, Hamburg, Germany) were incubated for 1 h in 2% milk in PBST at RT and washed three times for 10 min in PBST. Proteins were detected by enhanced chemiluminescence using SuperSignal West Femto Chemiluminescent Substrate (Thermo Scientific) and the ChemiDoc system (Bio-Rad, Munich, Germany) with QuantityOne software (Bio-Rad) according to the manufacturer's protocol. Relative protein expressions were quantified densitometrically with QuantityOne (Bio-Rad) software and calculated by normalization to the reference signals of actin with GraphPad Prism software (GraphPad, San Diego, CA, USA).
Pilocarpine pre-treated and naïve mice were treated with a single oral dose of Cpd. 3 (40 mg/kg), Cpd. 8 (25 mg/kg), everolimus (5 mg/kg) or vehicle. 5 mice per group were utilized and sacrificed after 3 hours.
(In general: Immunoblotting shows a protein as a band on a membrane.)

Assay [3] concerns female NMRI mice, nonepileptic (sham-SE) and epileptic (pilo-SE). In words: Maximal electroshock seizure threshold test (MEST). The class given is in vivo, mouse. The following applies: pretreatment 3 h. As for the experimental part:
A total of 166 adult female NMRI mice were used obtained from Charles River (Sulzfeld, Germany) at a weight range of 21-25 g (mice). Animals were kept under the following conditions: Housing: Animals were housed in groups of max. 8 mice under controlled conditions (temperature: 22±1° C.; humidity: 50% 60%/), under a 12-h light-dark cycle (lights on at 6:00 a.m.). Feeding: Standard laboratory chow (Altromin 1324 standard diet, Altromin Spezialfutter GmbH, Lage, Germany) was provided ad libitum. Drinking water: Tap water was provided ad libitum.
The MEST determines a population seizure threshold in groups of ˜20 animals and not the threshold for an individual animal. In the present study, the MEST was determined by a staircase procedure as previously described. A stimulator (BMT Medizintechnik, Berlin, Germany) that delivered a constant current (adjustable from 1-200 mA regardless of the impedance of the animal) with sinusoidal pulses (50/sec) for 0.2 sec was used.
Current administration was performed via bilateral transcorneal stimulation (using copper electrodes). Before transcorneal stimulation, a drop of tetracaine solution (2%) was administered to the eyes of the mouse for local anesthesia. Two minutes later, the mouse was restrained by hand to press the copper electrodes on both corneas while the stimulus was applied by stepping on a foot pedal switch connected with the stimulator. Electrodes were covered with soft leather and soaked with saline before each current application. […] The first stimulation was started with a current near to the control threshold.
3 (HCl): 40/100 mg in 10 ml (Suspension; 5% PEG 400 and 2% Tween 80, HPBCD (10%6)) • Cpd. 8 (HCl): 12.5/25 mg in 10 ml (5% PEG 400 and 2% Tween 80, HPBCD (10%))
Statistical analysis were calculated using Student's t-test. All tests were used two-sided; a P<0.05 was considered significant.
We performed no special tests for the determination of adverse effects. Mice were observed about 30 min after injection in their home cages for obvious sedation or reduction of wellbeing. Five minutes before electrical stimulation mice were again observed in their home cages and two minutes before stimulation during handling procedure for treatment with local anaesthesia. Every obvious variation from normal behavior was noted. Only phenobarbital induced noticeable sedation which lasted for more than 60 min. All other test drugs (including vehicle solutions) were tolerated without any obvious adverse effects.
Background: In the maximal electroshock model the usual endpoint is tonic extension of the hind limbs.

T1 sequence (P42345 1360-2549): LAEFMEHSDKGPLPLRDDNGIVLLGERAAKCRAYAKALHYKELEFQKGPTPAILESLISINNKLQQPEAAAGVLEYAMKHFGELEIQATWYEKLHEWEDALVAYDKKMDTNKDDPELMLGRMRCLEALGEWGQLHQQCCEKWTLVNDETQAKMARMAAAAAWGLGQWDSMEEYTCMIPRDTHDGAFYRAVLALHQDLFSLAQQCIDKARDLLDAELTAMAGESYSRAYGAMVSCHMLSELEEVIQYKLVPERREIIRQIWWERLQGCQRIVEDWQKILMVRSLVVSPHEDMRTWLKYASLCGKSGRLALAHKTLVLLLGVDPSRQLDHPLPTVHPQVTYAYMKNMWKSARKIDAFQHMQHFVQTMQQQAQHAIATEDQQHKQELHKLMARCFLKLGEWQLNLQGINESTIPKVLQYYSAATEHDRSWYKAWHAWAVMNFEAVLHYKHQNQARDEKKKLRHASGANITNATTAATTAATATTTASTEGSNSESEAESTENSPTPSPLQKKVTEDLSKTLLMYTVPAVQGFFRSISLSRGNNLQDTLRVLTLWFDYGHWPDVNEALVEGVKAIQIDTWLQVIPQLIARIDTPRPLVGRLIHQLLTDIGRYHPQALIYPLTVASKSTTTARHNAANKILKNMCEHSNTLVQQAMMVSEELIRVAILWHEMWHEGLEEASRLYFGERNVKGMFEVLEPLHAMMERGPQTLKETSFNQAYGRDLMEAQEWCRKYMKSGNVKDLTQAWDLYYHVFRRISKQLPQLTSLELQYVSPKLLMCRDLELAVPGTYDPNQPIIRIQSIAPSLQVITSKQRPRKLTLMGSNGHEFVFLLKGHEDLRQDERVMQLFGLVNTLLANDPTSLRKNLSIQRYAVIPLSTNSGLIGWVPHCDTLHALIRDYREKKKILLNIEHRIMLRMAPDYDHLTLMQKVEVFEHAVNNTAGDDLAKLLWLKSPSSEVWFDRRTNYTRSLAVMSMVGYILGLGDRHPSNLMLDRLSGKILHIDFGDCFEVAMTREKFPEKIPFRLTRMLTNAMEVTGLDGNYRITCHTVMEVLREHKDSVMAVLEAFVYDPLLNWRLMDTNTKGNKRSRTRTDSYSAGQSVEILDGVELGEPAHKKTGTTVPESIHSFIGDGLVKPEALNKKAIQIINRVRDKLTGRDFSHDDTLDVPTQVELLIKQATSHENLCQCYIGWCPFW

On to `Nc1cc(C(F)(F)F)c(-c2nc(N3CCNCC3)nc(N3CCOCC3)n2)cn1`, for which, in assay [1], the pIC50 – broadly, the negative decadic logarithm of the IC50, by convention in mol/L – is 6.10.

`Nc1ncc(-c2nc(N3CCNCC3)nc(N3CCOCC3)n2)c(C(F)(F)F)n1`: the pIC50 in assay [1] was 5.55.

`Nc1cc(C(F)(F)F)c(-c2nc(N3CCOCC3)nc(N3CCSCC3)n2)cn1`: the pIC50 in assay [1] was 6.93.

As to `Nc1ncc(-c2nc(N3CCOCC3)nc(N3CCSCC3)n2)c(C(F)(F)F)n1`, the negative logarithm of the IC50 (pIC50) in assay [1] was 6.40.

On to `CO[C@H]1C[C@@H]2CC[C@@H](C)[C@@](O)(O2)C(=O)C(=O)N2CCCC[C@H]2C(=O)O[C@H]([C@H](C)C[C@@H]2CC[C@@H](OCCO)[C@H](OC)C2)CC(=O)[C@H](C)/C=C(\C)[C@@H](O)[C@@H](OC)C(=O)[C@H](C)C[C@H](C)/C=C/C=C/C=C/1C` [everolimus, reference compound], for which the “decrease of S6 phosphorylation (S235/236) versus control” value in assay [2] (epileptic (pilocarpine pre-treated) mice) and in assay [2] (naïve mice) was “No significant changes” throughout. Besides, the “S6 phosphorylation / mTOR signaling in brain (FIG. 3B)” value in assay [2] (epileptic/pilocarpine pre-treated and naïve mice, single oral dose) is on record as “did not show significant mTOR signaling inhibition in brain”. Moreover, the entries for the “Threshold difference between nonepileptic and epileptic” value in assay [3] (5 mg/kg everolimus p.o.) and in assay [3] (10 mg/kg everolimus p.o.) were 20% and 1%, respectively. Moreover, in assay [3] (5 mg/kg everolimus p.o.), the “Threshold difference between vehicle and drug threshold, epileptic” value is 16%. For the same compound, the figures for the “Threshold difference between vehicle and drug threshold, nonepileptic” value in assay [3] (5 mg/kg everolimus p.o.) and in assay [3] (10 mg/kg everolimus p.o.) were 13% and 10%, respectively.
